Reference: ChEMBL document CHEMBL1201862, “PubChem BioAssay data set” (2004)
The source made the active and inactive calls.

Assays:
[1] = target: T1, Rac GTPase-activating protein 1 (Homo sapiens, UniProt Q9H0H5); experiment: MgcRacGAP GTPase-activating activity inhibitors, confirmation, biochemical, ADP Hunter fluorescence, primary and confirmatory (AID 624330); format: functional
T1 sequence (Q9H0H5 whole entry): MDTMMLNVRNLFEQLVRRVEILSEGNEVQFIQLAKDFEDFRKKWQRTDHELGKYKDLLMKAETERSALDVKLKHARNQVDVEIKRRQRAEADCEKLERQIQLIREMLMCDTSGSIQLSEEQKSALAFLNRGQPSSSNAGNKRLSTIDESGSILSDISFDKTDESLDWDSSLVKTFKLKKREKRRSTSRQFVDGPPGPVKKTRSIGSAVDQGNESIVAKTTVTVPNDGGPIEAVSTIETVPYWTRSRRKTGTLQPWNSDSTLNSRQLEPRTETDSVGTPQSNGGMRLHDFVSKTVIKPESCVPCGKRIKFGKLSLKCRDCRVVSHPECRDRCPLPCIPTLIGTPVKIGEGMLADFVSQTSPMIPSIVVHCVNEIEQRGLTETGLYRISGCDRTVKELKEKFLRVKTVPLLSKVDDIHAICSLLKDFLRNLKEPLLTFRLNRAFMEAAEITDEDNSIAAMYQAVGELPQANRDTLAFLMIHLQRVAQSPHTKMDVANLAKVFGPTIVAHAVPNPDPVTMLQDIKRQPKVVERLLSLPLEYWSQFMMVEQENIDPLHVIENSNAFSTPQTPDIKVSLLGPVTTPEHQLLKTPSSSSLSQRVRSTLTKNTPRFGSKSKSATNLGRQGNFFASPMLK

[2] = target: Heat shock protein HSP 90-alpha (Homo sapiens, UniProt P07900); format: functional, organism-based
[3] = HeLa cell cytotoxicity, dose response, cytotoxicity control for MgcRacGAP inhibitor project (AID 624300); format: functional
[4] = target: Photoreceptor-specific nuclear receptor (Homo sapiens, UniProt Q9Y5X4); format: functional, cell-based;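 also: CHO-S cells with Gal4-NCOR and VP16-NR2E3 two-hybrid luciferase reporter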
[5] = P. falciparum Dd2 growth inhibitors, dose response, SYBR Green, cherry-picked samples (AID 1159567); format: functional, cell-based
[6] = P. falciparum ATP4 D1247Y mutant growth inhibitors, dose response, NITD609-resistant line, SYBR Green, dry powder (AID 1159571); format: functional, cell-based;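 also: parasites synchronized at ring stage by sorbitol before testing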
[7] = P. falciparum 3D7-ScDHODH growth inhibitors, dose response, SYBR Green, dry powder samples (AID 1159570); format: functional, cell-based;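 also: parasite growth measured after 72 hours of compound exposure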
[8] = HepG2 cell cytotoxicity, dose response, cytotoxicity control, plate reader, dry powder samples (AID 1159569); format: functional, cell-based;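 also: inhibitor potency with signal falling toward the positive control level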
[9] = P. falciparum Dd2 growth inhibitors, dose response, SYBR Green, dry powder samples (AID 1159566); format: functional, cell-based;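 also: potency for growth inhibition with lower SYBR green DNA signal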
[10] = Late stage assay provider results from the probe development effort to identify inhibitors of the Plasmodium falciparum M18 Aspartyl Aminopeptidase (M18AAP): radiolabel-based cell-based dose response assay to identify compounds that inhibit P. falciparum growth in RBCs, Set 2..; format: functional
[11] = Luminescence Cell-Based Dose Confirmation HTS to Identify Inhibitors of Platelet Dense Granule Release. [Related pubchem assays: 1663 (Primary HTS), 1678 (Summary of Project)]; format: functional
[12] = Luminescence Cell-Based Dose Retest to Confirm Inhibitors of Cancer Stem Cells. [Related pubchem assays (depositor defined):AID2717, AID2721]; format: functional; details: Homo sapiens
[13] = target: T2, Oxysterols receptor LXR-beta (Homo sapiens, UniProt P55055); format: functional, cell-based;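 also: agonist activity at LXR measured by a cell-based luminescence readout across a dose range, run as a counterscreen for daf-12 agonists; HEK293 cells with Gal4-LXR fusion and GAL4-driven luciferase reporter; potency for activation of Gal4-LXR reporter so compounds are agonists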
T2 sequence (P55055 whole entry): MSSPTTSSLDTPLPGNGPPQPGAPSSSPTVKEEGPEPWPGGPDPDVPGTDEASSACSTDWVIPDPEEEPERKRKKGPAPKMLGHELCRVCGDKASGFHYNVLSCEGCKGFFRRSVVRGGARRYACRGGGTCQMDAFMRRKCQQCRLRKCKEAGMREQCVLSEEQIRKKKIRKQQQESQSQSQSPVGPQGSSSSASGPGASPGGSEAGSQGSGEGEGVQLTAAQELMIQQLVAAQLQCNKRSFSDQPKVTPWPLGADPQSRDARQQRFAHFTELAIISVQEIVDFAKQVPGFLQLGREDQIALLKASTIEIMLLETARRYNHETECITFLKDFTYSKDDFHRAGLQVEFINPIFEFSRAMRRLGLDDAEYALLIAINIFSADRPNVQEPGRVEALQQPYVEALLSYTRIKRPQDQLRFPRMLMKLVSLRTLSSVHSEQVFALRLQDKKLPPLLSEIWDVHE

[14] = target: Luciferin 4-monooxygenase (Photinus pyralis, UniProt P08659); experiment: firefly luciferase enzyme inhibitors, dose response, biochemical, luminescence (AID 1891)
[15] = target: T3, Trace amine-associated receptor 1 (Homo sapiens, UniProt Q96RJ0); experiment: Fluorescence-based cell-based high throughput dose response assay to identify agonists of the human trace amine associated receptor 1 (TAAR1).; format: functional
T3 sequence (Q96RJ0 whole entry): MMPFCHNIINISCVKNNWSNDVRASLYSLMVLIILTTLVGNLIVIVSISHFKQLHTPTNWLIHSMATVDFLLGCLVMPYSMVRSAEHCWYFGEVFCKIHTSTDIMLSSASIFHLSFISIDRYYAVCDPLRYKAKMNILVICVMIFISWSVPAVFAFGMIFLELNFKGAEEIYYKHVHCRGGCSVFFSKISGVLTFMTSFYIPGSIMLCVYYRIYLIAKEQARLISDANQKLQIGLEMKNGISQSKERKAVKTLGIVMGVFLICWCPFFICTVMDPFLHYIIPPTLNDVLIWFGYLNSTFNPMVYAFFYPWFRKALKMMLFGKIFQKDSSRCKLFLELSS

[16] = cells; format: functional, cell-based
[17] = target: T3, Trace amine-associated receptor 1; experiment: Counterscreen for agonists of the human trace amine associated receptor 1 (hTAAR1): Fluorescence-based cell-based high throughput dose response assay to identify hTAAR1 agonist that also desensitize TAAR1 receptor response.; format: functional
[18] = cells; format: functional, cell-based; remark: listed apart in the source
[19] = HepG2 cell cytotoxicity, dose response, cytotoxicity control, ATP luminescence, cherry-pick, activator set 2 (AID 1053143); format: functional, cell-based
[20] = target: Major prion protein (Homo sapiens, UniProt P04156); format: functional, cell-based
[21] = cells
[22] = test system: Vero; experiment: cells; format: functional; details: Chlorocebus sabaeus
[23] = PAX5 activity inhibitors, dose response, selectivity assay for PAX8 inhibitor project, cell-based, plate reader, dry powder samples (AID 743047); format: functional;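 also: HEK293 cells carrying a Pax5 driven CD19 promoter luciferase reporter; potency of inhibitors that lower reporter luminescence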
[24] = target: Paired box protein Pax-8 (Homo sapiens, UniProt Q06710); experiment: inhibitors of PAX8-driven TPO luciferase reporter, dose response, RMG-I cells, cherry-pick (AID 687027); format: functional, cell-based;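 also: luciferase reporter driven by Pax8 target thyroperoxidase promoter measured by SteadyGlo luminescence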
[25] = cytotoxicity dependent on PAX8, dose response, cell-based, plate reader, dry powder (AID 743049); format: functional
[26] = target: T4, DNA repair and recombination protein RAD54-like (Homo sapiens, UniProt Q92698); experiment: inhibitors of human RAD54 branch migration, confirmation, biochemical, fluorescence, cherry-picked samples, dose series (AID 651657); format: functional
T4 sequence (Q92698 whole entry): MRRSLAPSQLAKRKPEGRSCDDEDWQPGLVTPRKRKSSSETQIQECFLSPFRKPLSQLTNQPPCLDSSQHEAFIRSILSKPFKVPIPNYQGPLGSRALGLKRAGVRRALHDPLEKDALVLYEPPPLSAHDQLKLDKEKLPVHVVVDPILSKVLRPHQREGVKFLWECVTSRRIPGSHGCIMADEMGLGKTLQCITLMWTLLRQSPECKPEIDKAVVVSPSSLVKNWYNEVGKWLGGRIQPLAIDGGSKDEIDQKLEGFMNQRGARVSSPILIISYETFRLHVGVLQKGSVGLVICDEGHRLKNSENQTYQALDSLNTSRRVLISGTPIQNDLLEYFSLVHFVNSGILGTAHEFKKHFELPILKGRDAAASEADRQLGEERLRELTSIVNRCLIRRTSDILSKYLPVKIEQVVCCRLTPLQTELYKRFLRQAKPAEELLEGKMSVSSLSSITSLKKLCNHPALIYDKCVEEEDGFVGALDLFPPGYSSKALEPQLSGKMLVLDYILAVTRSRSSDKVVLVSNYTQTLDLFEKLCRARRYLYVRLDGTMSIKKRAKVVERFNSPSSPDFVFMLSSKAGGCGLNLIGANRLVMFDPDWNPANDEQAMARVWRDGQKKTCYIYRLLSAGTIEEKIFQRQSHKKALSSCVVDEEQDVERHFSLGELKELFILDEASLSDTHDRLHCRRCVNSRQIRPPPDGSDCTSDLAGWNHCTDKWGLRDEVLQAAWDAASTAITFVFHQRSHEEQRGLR

[27] = target: T5, DNA repair protein RAD52 homolog (Homo sapiens, UniProt P43351); format: functional, biochemical
T5 sequence (P43351 whole entry): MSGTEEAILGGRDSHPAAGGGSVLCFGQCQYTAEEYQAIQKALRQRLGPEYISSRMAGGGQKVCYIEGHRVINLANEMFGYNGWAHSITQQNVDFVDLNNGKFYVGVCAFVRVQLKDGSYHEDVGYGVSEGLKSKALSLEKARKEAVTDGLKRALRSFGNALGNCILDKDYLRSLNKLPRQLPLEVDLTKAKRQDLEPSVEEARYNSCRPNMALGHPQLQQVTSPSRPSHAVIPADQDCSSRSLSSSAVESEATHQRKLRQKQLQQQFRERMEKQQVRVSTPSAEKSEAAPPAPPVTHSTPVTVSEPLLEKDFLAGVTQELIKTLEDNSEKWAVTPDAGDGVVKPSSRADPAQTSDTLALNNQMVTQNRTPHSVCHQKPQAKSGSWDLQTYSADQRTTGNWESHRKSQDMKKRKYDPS

O=C1C=CC2(O[C@H](c3ccccc3)[C@@H](c3ccccc3)O2)[C@H](Sc2ccccc2O)C1
IC50 [1]: 43.8 µM (active)
AC50 [2]: 4.16 µM (active)
CC50 [3]: 50 µM (active)
IC50 [4]: 4.1 µM (active)

c1cncc(-c2ccc([C@@H]3[C@@H]4CN(Cc5nccs5)C[C@H]3N4)cc2)c1
AC50 [5]: 2.15 µM (active)
AC50 [6]: 2.03 µM (active)
AC50 [7]: 2.97 µM (active)
AC50 [8]: 79.6 µM (active)
AC50 [9]: 1.72 µM (active)

COc1ccc(CCN(C)c2ccnc3cc(Cl)ccc23)cc1OC
IC50 [10]: 5.75 µM (active)

Oc1ccc(N=Nc2ccc3ccccc3c2)cc1
AC50 [2]: 4.38 µM (active)
EC50 [11]: 3.76 µM (active)
AC50 [12]: 3.06 µM (active)
EC50 [13]: > 67.5 µM (inactive)
EC50 [14]: 0.712 µM (active)

c1ccc(CCNC2CCCCCC2)cc1
EC50 [15]: 0.495 µM (active)
EC50 [16]: > 29.9 µM (inactive)
IC50 [17]: 1.72 µM (active)
IC50 [18]: > 29.9 µM (inactive)

O=C(CC(NCCc1ccccc1)C(=O)O)Nc1ccc(O)cc1 (stereo unspecified)
EC50 [15]: 7.65 µM (active)
EC50 [16]: > 29.9 µM (inactive)
IC50 [17]: > 29.9 µM (inactive)
IC50 [18]: > 29.9 µM (inactive)

O=C(Oc1cccc(/C=N/NC(=O)c2ccccn2)c1)c1ccc([N+](=O)[O-])cc1
AC50 [19]: > 52 µM (inactive)

O=C(CSc1ncnc2ccccc12)NCCc1ccccc1
IC50 [20]: 6.69 µM (active)
IC50 [21]: > 138 µM (inactive)

O=C1/C(=C/c2cccc(Br)c2)SC(=S)N1CCC(=O)N(CCO)c1ccccc1
CC50 [22]: > 25 µM (active)
AC50 [23]: 91.4 µM (active)
AC50 [24]: 8.17 µM (active)
AC50 [25]: 34.3 µM (active)

COc1cc(CCN)ccc1O
EC50 [15]: 2.4 µM (active)
EC50 [16]: > 29.9 µM (inactive)
IC50 [17]: 21.6 µM (inactive)
IC50 [18]: > 29.9 µM (inactive)

COc1cccc(-c2cc3nc(NCCN4CCCC4)n(C)c(=O)c3s2)c1
AC50 [26]: 45.4 µM (active)
AC50 [27]: 5.5 µM (active)
